Experimental findings from patent US10821100B2, “Triazolone compounds as mPGES-1 inhibitors” (Glenmark Pharmaceuticals S.A., priority 2012, dated 2020) are described below.

The target in this experiment is T1, Recombinant human mPGES-1 (Homo sapiens, UniProt O14684).
T1 construct: made in house; host or cells: CHO cells (crude microsomal fractions)
T1 sequence (O14684 1-152): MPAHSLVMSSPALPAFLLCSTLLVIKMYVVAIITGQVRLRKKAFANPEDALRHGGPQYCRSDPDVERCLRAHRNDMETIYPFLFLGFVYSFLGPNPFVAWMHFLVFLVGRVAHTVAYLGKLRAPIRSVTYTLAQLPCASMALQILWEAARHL
The experiment can be described thus: In-vitro screening of mPGES-1 inhibitors (inhibition of PGE2 formation from PGH2, HTRF detection). As to conditions: mPGES-1 enzyme; for inhibition at 1 µM: 1 μM test compound, read-out: Percentage inhibition at 1 μM; for inhibition at 1 µM / inhibition at 10 µM: crude microsomal fractions; for inhibition at 10 µM: 10 μM test compound, read-out: Percentage inhibition at 10 μM; for IC50: class symbols. It is filed as biochemical. The text has this:
In-Vitro Protocol for Screening of mPGES-1 Inhibitors: mPGES-1 (Microsomal prostaglandin E synthase-1) is a microsomal enzyme that converts endoperoxide substrate PGH2 (prostaglandin H2) to product PGE2 (prostaglandin E2) by isomerization in the presence of reduced glutathione (GSH). mPGES-1 inhibitors were screened by assessing their ability to inhibit formation of PGE2 from PGH2 in the presence of mPGES-1 using an anti-PGE2 antibody based detection method. Recombinant human mPGES-1 was generated in-house by expression in CHO cells (Ouellet M et al. (2002), Protein Expression and Purification 26: 489-495). The assay was set up using crude microsomal fractions at a protein concentration of 40-60 μg/mL. Test compounds were prepared in 100% dimethyl sulfoxide (DMSO) to obtain 20 mM stock solution and then diluted using assay buffer comprising 0.1 M Potassium phosphate buffer with 2 mM EDTA. The final concentration of DMSO in the reaction was 0.5% (v/v). Negative controls were comprised of all assay reagents except the enzyme. Positive controls were comprised of the enzyme reaction in the absence of any inhibitor. Test compounds were incubated for 10 minutes in assay buffer containing 2.5 mM GSH and mPGES-1 enzyme followed by addition of PGH2 at a concentration of 15 μM for 1 minute. The reaction was stopped by addition of Stannous chloride (11 mg/ml) and PGE2 levels were measured ([…] et al. (2005), Journal of Biomolecular Screening 10(6) 599-605; Goedken R E et al. (2008), Journal of Biomolecular Screening 13 (7): 619-625) by HTRF kit (CisBio)). Inhibition of mPGES-1 enzyme activity was measured using the percent of reaction occurring in the positive control. Concentration response curves were plotted using percent inhibition of maximum enzyme reaction. The IC50 value was calculated from the concentration response curve by nonlinear regression analysis using GraphPad PRISM software.
Background: In TR-FRET formats the signal depends on donor and acceptor labels being close together.

As for `COc1ccc(-n2nc(-c3c(F)cccc3Cl)[nH]c2=O)cc1C(=O)NC1(c2ccc(C(F)(F)F)cc2)CC1` [Example-23, 5-[3-(2-Chloro-6-fluorophenyl)-5-oxo-4,5-dihydro-1H-1,2,4-triazol-1-yl]-2-methoxy-N-[1-[4-(trifluoromethyl)phenyl]cyclopropyl]benzamide], the inhibition (usually the change of the read-out against control, counted positive when it falls) at 1 µM is 13.2% and the inhibition at 10 µM came out at 52.9%.

`O=C(NC1(c2ccccc2C(F)(F)F)CC1)c1ccc(-n2nc(-c3c(F)cccc3Cl)[nH]c2=O)cc1` [Example-24, 4-(3-(2-Chloro-6-fluorophenyl)-5-oxo-4,5-dihydro-1H-1,2,4-triazol-1-yl)-N-(1-(2-(trifluoromethyl)phenyl)cyclopropyl)benzamide]: the inhibition at 1 µM came to 71% and the inhibition at 10 µM was 83.1%.

On to `COc1cc(-n2nc(-c3c(F)cccc3Cl)[nH]c2=O)ccc1C(=O)NCc1ccccc1C(F)(F)F` [Example-25, 4-[3-(2-Chloro-6-fluorophenyl)-5-oxo-4,5-dihydro-1H-1,2,4-triazol-1-yl]-2-methoxy-N-[2-(trifluoromethyl)benzyl]benzamide], for which the inhibition at 1 µM amounted to 74.4%, the inhibition at 10 µM was 88.9% and the IC50 (usually the concentration that inhibits the measured activity by half) is > 0.1 µM.

In the case of `COc1cc(-n2nc(-c3c(F)cccc3Cl)[nH]c2=O)ccc1C(=O)NC1(c2ccccc2C(F)(F)F)CC1` [Example-26, 4-(3-(2-Chloro-6-fluorophenyl)-5-oxo-4,5-dihydro-1H-1,2,4-triazol-1-yl)-2-methoxy-N-(1-(2-(trifluoromethyl)phenyl)cyclopropyl)benzamide], the inhibition at 1 µM was 80.6%, the inhibition at 10 µM worked out at 88.1% and the IC50 was > 0.1 µM.

As to `COc1cc(-n2nc(-c3c(F)cccc3Cl)[nH]c2=O)ccc1C(=O)NC1(c2ccc(C(F)(F)F)cc2)CC1` [Example-27, 4-(3-(2-Chloro-6-fluorophenyl)-5-oxo-4,5-dihydro-1H-1,2,4-triazol-1-yl)-2-methoxy-N-(1-(4-(trifluoromethyl)phenyl)cyclopropyl)benzamide], the inhibition at 1 µM was determined as 72.8% and the inhibition at 10 µM was 97.5%.

Regarding `O=C(NCc1ccc(F)cc1C(F)(F)F)c1ccc(-n2nc(-c3c(F)cccc3Cl)[nH]c2=O)cc1` [Example-28, 4-(3-(2-Chloro-6-fluorophenyl)-5-oxo-4,5-dihydro-1H-1,2,4-triazol-1-yl)-N-(4-fluoro-2-(trifluoromethyl)benzyl)benzamide], the inhibition at 1 µM was found to be 72.2% and the inhibition at 10 µM amounted to 95.5%.

In the case of `O=C(Nc1ccc(C(F)(F)F)cc1)c1ccc(-n2nc(-c3c(F)cccc3Cl)[nH]c2=O)cc1` [Example-29, 4-(3-(2-Chloro-6-fluorophenyl)-5-oxo-4,5-dihydro-1H-1,2,4-triazol-1-yl)-N-(4-(trifluoromethyl)phenyl)benzamide], the inhibition at 1 µM turned out to be 79.2%, the inhibition at 10 µM was determined as 85.8% and the 50% inhibitory concentration (IC50) was > 0.1 µM.

Take `O=c1[nH]c(-c2c(F)cccc2Cl)nn1-c1ccc(-c2nc(-c3ccc(F)cc3)no2)cc1` [Example-30, 3-(2-Chloro-6-fluorophenyl)-1-(4-(3-(4-fluorophenyl)-1,2,4-oxadiazol-5-yl)phenyl)-1H-1,2,4-triazol-5(4H)-one]: the inhibition at 1 µM was found to be 89.6%, the inhibition at 10 µM is 94.5% and the half-maximal inhibitory concentration (IC50) is < 0.05 µM.

With `O=C(Nc1cccc(C(F)(F)F)c1)c1ccc(-n2nc(-c3c(F)cccc3Cl)[nH]c2=O)cc1` [Example-31, 4-(3-(2-Chloro-6-fluorophenyl)-5-oxo-4,5-dihydro-1H-1,2,4-triazol-1-yl)-N-(3-(trifluoromethyl)phenyl)benzamide], the inhibition at 1 µM worked out at 96.9%, the inhibition at 10 µM was 98.6% and the IC50 was 0.05 to 0.1 µM.

Consider `O=C(Nc1ccc(F)c(C(F)(F)F)c1)c1ccc(-n2nc(-c3c(F)cccc3Cl)[nH]c2=O)cc1` [Example-32, 4-(3-(2-Chloro-6-fluorophenyl)-5-oxo-4,5-dihydro-1H-1,2,4-triazol-1-yl)-N-(4-fluoro-3-(trifluoromethyl)phenyl)benzamide], for which the inhibition at 1 µM worked out at 88.8%, the inhibition at 10 µM is 94% and the half-maximal inhibitory concentration (IC50) is 0.05 to 0.1 µM.

For the compound `COc1cc(-n2nc(-c3c(F)cccc3Cl)[nH]c2=O)ccc1C(=O)Nc1ccc(F)c(C(F)(F)F)c1` [Example-33, 4-(3-(2-Chloro-6-fluorophenyl)-5-oxo-4,5-dihydro-1H-1,2,4-triazol-1-yl)-N-(4-fluoro-3-(trifluoromethyl)phenyl)-2-methoxybenzamide], the inhibition at 1 µM came to 89.4%, the inhibition at 10 µM amounted to 96.8% and the concentration for half-maximal inhibition (IC50) was < 0.05 µM.

With `O=C(Nc1cc(C(F)(F)F)ccc1F)c1ccc(-n2nc(-c3c(F)cccc3Cl)[nH]c2=O)cc1` [Example-34, 4-(3-(2-Chloro-6-fluorophenyl)-5-oxo-4,5-dihydro-1H-1,2,4-triazol-1-yl)-N-(2-fluoro-5-(trifluoromethyl)phenyl)benzamide], the inhibition at 1 µM was 70.7% and the inhibition at 10 µM is 92.3%.

With `Cc1ccc(NC(=O)c2ccc(-n3nc(-c4c(F)cccc4Cl)[nH]c3=O)cc2)c(F)c1` [Example-35, 4-(3-(2-Chloro-6-fluorophenyl)-5-oxo-4,5-dihydro-1H-1,2,4-triazol-1-yl)-N-(2-fluoro-4-methylphenyl)benzamide], the inhibition at 1 µM amounted to 37.4% and the inhibition at 10 µM was determined as 59.1%.

Regarding `COc1cc(-n2nc(-c3c(F)cccc3Cl)[nH]c2=O)ccc1C(=O)Nc1cc(C(F)(F)F)ccc1F` [Example-36, 4-(3-(2-Chloro-6-fluorophenyl)-5-oxo-4,5-dihydro-1H-1,2,4-triazol-1-yl)-N-(2-fluoro-5-(trifluoromethyl)phenyl)-2-methoxybenzamide], the inhibition at 1 µM stood at 97.3%, the inhibition at 10 µM is 98.9% and the 50% inhibitory concentration (IC50) was < 0.05 µM.

For the compound `Cc1ccc(Cl)cc1NC(=O)c1ccc(-n2nc(-c3c(F)cccc3Cl)[nH]c2=O)cc1` [Example-37, N-(5-Chloro-2-methylphenyl)-4-(3-(2-chloro-6-fluorophenyl)-5-oxo-4,5-dihydro-1H-1,2,4-triazol-1-yl)benzamide], the inhibition at 1 µM is 51% and the inhibition at 10 µM turned out to be 94.3%.

Regarding `COc1cc(-n2nc(-c3c(F)cccc3Cl)[nH]c2=O)ccc1C(=O)Nc1cc(Cl)ccc1C` [Example-38, N-(5-Chloro-2-methylphenyl)-4-(3-(2-chloro-6-fluorophenyl)-5-oxo-4,5-dihydro-1H-1,2,4-triazol-1-yl)-2-methoxybenzamide], the inhibition at 1 µM was 87.4%, the inhibition at 10 µM worked out at 84.9% and the IC50 is 0.05 to 0.1 µM.

Turning to `COc1cc(-n2nc(-c3c(F)cccc3Cl)[nH]c2=O)ccc1C(=O)Nc1ccc(C)cc1F` [Example-39, 4-(3-(2-Chloro-6-fluorophenyl)-5-oxo-4,5-dihydro-1H-1,2,4-triazol-1-yl)-N-(2-fluoro-4-methylphenyl)-2-methoxybenzamide], the inhibition at 1 µM amounted to 90.1%, the inhibition at 10 µM worked out at 96.4% and the IC50 fell in the range of 0.05 to 0.1 µM.

`COc1cc(-n2nc(-c3c(F)cccc3Cl)[nH]c2=O)ccc1-c1nc(-c2ccc(Cl)cc2)no1` [Example-40, 3-(2-Chloro-6-fluorophenyl)-1-(4-(3-(4-chlorophenyl)-1,2,4-oxadiazol-5-yl)-3-methoxyphenyl)-1H-1,2,4-triazol-5(4H)-one]: the inhibition at 1 µM was determined as 89%, the inhibition at 10 µM worked out at 90.7% and the IC50 is < 0.05 µM.

With `COc1cc(OC)cc(-c2noc(-c3ccc(-n4nc(-c5c(F)cccc5Cl)[nH]c4=O)cc3OC)n2)c1` [Example-41, 3-(2-Chloro-6-fluorophenyl)-1-(4-(3-(3,5-dimethoxyphenyl)-1,2,4-oxadiazol-5-yl)-3-methoxyphenyl)-1H-1,2,4-triazol-5(4H)-one], the inhibition at 1 µM was 58.8% and the inhibition at 10 µM was 87.1%.

With `COc1cc(-n2nc(-c3c(Cl)cccc3Cl)[nH]c2=O)ccc1C(=O)Nc1cccc(C(F)(F)F)c1` [Example-42, 4-(3-(2,6-Dichlorophenyl)-5-oxo-4,5-dihydro-1H-1,2,4-triazol-1-yl)-2-methoxy-N-(3-(trifluoromethyl)phenyl)benzamide], the inhibition at 1 µM came to 96.5%, the inhibition at 10 µM came out at 99.7% and the IC50 was < 0.05 µM.
